{"source": "patent US20230218661A1", "about": "“ISOTONIC OR HYPERTONIC SALT-BASED COMPOSITIONS, TREATMENTS, DEVICES, AND ARTICLES FOR DELIVERY OF SAME TO LARYNX” (SENSORY CLOUD, INC., priority 2022, published 2023)", "tested_on": "post viral cough", "experiment": "Informal single-subject study of post viral cough exacerbation", "settings": "self-administration, subjective"}
{"smiles": "COc1ccc2c3c1O[C@H]1[C@@H](O)C=C[C@H]4[C@@H](C2)N(C)CC[C@@]341", "note": "[codeine]", "values": [{"measurement": "subject-reported relief", "result": "dramatic relief"}]}
